Assay: The compound was evaluated for the inhibitory activity against human thrombin

Ki: 0.032 µM
SMILES: CC1(C)CNc2c(cccc2S(=O)(=O)NC(CCCNC(=N)N)C(=O)N2CCC(CCO)CC2)C1 (stereo unspecified) [3,3-Dimethyl-1,2,3,4-tetrahydro-quinoline-8-sulfonic acid {4-guanidino-1-[4-(2-hydroxy-ethyl)-piperidine-1-carbonyl]-butyl}-amide]
